Data from PubChem BioAssay AID743118 (The Scripps Research Institute Molecular Screening Center, 2013).

Columns and labels:
[1] = molecular target: Acyl-protein thioesterase 1 (Homo sapiens) (UniProt O75608); assay: LYPLA1 and LYPLA2 inhibitor potency in vitro, late-stage follow-up, cell lysate, HeLa soluble proteome, fluorescence gel (AID 743118); details: gel-based ABPP FP-Rh fluorescence, LYPLA1
[2] = molecular target: Acyl-protein thioesterase 2 (Homo sapiens) (UniProt O95372); assay: as above; details: gel-based ABPP FP-Rh fluorescence, LYPLA2
Acyl-protein thioesterase 2 (Homo sapiens), sequence (O95372 whole entry, looked up): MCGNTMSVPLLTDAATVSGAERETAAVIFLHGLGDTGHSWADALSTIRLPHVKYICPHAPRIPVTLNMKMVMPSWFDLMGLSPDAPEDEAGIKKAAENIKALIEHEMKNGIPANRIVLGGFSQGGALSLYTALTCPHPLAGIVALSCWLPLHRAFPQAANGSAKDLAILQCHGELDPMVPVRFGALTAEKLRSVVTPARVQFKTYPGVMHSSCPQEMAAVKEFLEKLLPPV

Acyl-protein thioesterase 1 (Homo sapiens), sequence (O75608 whole entry, looked up): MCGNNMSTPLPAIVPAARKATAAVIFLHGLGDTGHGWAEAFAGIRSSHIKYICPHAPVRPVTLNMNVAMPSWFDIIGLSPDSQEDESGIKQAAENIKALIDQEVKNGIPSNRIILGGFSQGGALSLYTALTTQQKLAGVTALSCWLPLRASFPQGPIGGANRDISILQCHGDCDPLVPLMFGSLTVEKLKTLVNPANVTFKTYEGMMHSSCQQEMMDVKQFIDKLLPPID

| SMILES | IC50 [1] | IC50 [2] |
| --- | --- | --- |
| O=C(ON1C(=O)C2CN(C(=O)N3CCCCC3)CCN2C1=O)N1CCC(CCc2ccc(Cl)cc2)CC1 (stereo not given) | 154 nM | 258 nM |
| O=C(ON1C(=O)C2CN(C(=O)N3CCCC3)CCN2C1=O)N1CCC(CCc2ccc(Cl)cc2)CC1 (stereo not given) | 225 nM | 384 nM |
| O=C(ON1C(=O)C2CN(C(=O)c3ccc(Br)cc3)CCN2C1=O)N1CCC(CCc2ccc(Cl)cc2)CC1 (stereo not given) | 306 nM | 726 nM |

Stronger by IC50 [1], values ahead:

| IC50 [1] | IC50 [2] | SMILES |
| --- | --- | --- |
| 122 nM | 245 nM | O=C(ON1C(=O)C2CN(C(=O)N3CCOCC3)CCN2C1=O)N1CCC(CCc2ccc(Cl)cc2)CC1 (stereo not given) |
| 92 nM | 217 nM | CC(C)(C)CC(=O)N1CCN2C(=O)N(OC(=O)N3CCC(CCc4ccc(Cl)cc4)CC3)C(=O)C2C1 (stereo not given) |
